The source of these data is US8404643B2, “Metastin derivatives and use thereof” (priority 2005, dated 2013).

Square brackets hold non-standard residues; d marks the D form. Peptide text beside a SMILES is read from it. * marks the point of attachment. Pro(trans-4-F) = O=C(O)[C@@H]1C[C@@H](F)CN1; Phe(4-Cl) = N[C@@H](Cc1ccc(Cl)cc1)C(=O)O; Phe(3-F) = N[C@@H](Cc1cccc(F)c1)C(=O)O; Phe(2-F) = N[C@@H](Cc1ccccc1F)C(=O)O; Arg(Me) = CNC(=N)NCCC[C@H](N)C(=O)O; Hyp = O=C(O)[C@@H]1C[C@@H](O)CN1; Decanoyl = CCCCCCCCCC(=O)*; dDap = NC[C@@H](N)C(=O)O; Aze = O=C(O)[C@@H]1CCN1; Ahx = NCCCCCC(=O)O; azaGly = NNC(=O)O

T1 sequence (Q969F8 whole entry L364H): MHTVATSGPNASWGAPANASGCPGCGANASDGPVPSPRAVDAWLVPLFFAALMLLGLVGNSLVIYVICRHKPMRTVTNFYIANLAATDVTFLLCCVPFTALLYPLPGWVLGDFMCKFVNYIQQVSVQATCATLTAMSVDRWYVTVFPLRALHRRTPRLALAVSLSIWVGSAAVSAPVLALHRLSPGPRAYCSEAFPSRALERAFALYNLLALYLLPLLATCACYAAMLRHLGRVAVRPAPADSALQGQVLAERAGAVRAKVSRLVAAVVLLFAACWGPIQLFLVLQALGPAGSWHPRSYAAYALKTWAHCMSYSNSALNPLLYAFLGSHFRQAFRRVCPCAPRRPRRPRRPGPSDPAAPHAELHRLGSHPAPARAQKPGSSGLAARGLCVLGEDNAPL

This assay concerns the target T1, hOT7T175 (Homo sapiens, UniProt Q969F8).
T1 construct: expressed in transfected cells
The experiment in a line: Assay for intracellular Ca ion level-increasing activity using FLIPR. The format is cell-based. The conditions noted are these: hOT7T175/CHO cells, relative to Metastin (1-54). As to the method:
In accordance with the method described in JPA 2000-312590, the intracellular Ca ion level-increasing activity was measured using FLIPR.
The stable expression cell line hOT7T175 was obtained by transfection of the expression plasmid pAK-rOT175 for animal cells into CHO/dhfr^− cells, using CellPhect Transfection Kit (Amersham Pharmacia Biotech, Inc.). First, 240 μL of Buffer A (attached to CellPhect Transfection Kit) was added to 9.6 μg of plasmid DNA dissolved in 240 μL of distilled water followed by stirring. After the mixture was settled for 10 minutes, 480 μL of Buffer B (attached to CellPhect Transfection Kit) was added to the mixture, which was vigorously stirred to form liposomes containing the DNA. Then, 4×10^5 CHO/dhfr^− cells (obtained from ATCC) were inoculated on a 60 mm Petri dish. After culturing the cells in Ham's F-12 medium (Nissui Seiyaku Co., Ltd.) supplemented with 10% fetal bovine serum (BIO WHITTAKER, Inc.) at 37° C. for 2 days in 5% carbon dioxide gas, […] of the liposomes were dropwise added to the cells on the Petri dish. After culturing the cells at 37° C. for 6 hours in 5% carbon dioxide gas, the cells were washed twice with serum-free Ham's F-12 medium and 3 mL of 15% glycerol was added to the cells on the Petri dish followed by treatment for 2 minutes. The cells were again washed twice with serum-free Ham's F-12 medium followed by incubation in Ham's F-12 medium supplemented with 10% fetal bovine serum at 37° C. for 15 hours in 5% carbon dioxide gas. The cells were dispersed by trypsin treatment to recover from the Petri dish. The recovered cells were inoculated on a 6-well plate in 1.25×10^4 cells/well and incubation was initiated at 37° C. in Dulbecco's modified Eagle medium (DMEM) medium (Nissui Seiyaku Co., Ltd.) containing 10% dialyzed fetal bovine serum (JRH BIOSCIENCES, Inc.) in 5% carbon dioxide gas. The plasmid-transfected CHO transformants grew in the medium but the non-transfected cells gradually died, accordingly the medium was exchanged on Days 1 and 2 after the initiation of incubation to remove the cells died. Approximately 20 colonies of the CHO transformants that kept growing on Days 8 to 10 after the incubation were isolated. From the cells in these colonies, cells showing high reactivity with the ligand peptide metastin (hereinafter merely referred to as hOT7T175/CHO) were selected to provide for the following experiment.
The intracellular Ca ion level-increasing activity of the synthetic peptide in hOT7T175/CHO was determined using FLIPR (Molecular Devices, Inc.).
hOT7T175/CHO was subcultured in DMEM supplemented with 10% dialyzed fetal bovine serum (hereinafter abbreviated as dFBS) (hereinafter referred to as 10% dFBS/DMEM) and provided for the experiment. The hOT7T175/CHO was suspended in 10% dFBS-DMEM in 15×10^4 cells/ml. The suspension was inoculated on a 96-well plate for FLIPR (Black Plate Clear Bottom, Coster, Inc.) at 200 μl/well (3.0×10^4 cells/200 μL/well), followed by incubation at 37° C. overnight in a 5% CO2 incubator (hereinafter referred to as the cell plate). Then, 21 ml of HANKS/HBSS (9.8 g of HANKS, 0.35 g of sodium hydrogencarbonate, 20 ml of 1M HEPES; after adjusting the pH to 7.4 with 1N sodium hydroxide, the mixture was sterilized by filtration), 210 μl of 250 mM Probenecid and 210 μl of fetal bovine serum (FBS) (HANKS/HBSS-Probenecid-FBS) were mixed.
Furthermore, 2 vials of Fluo3-AM (50 μg/vial) were dissolved in 21 μL of dimethylsulfoxide and 21 μL of 20% Pluronic acid. The resulting solution was added to and mixed with 10 ml of the HANKS/HBSS-Probenecid-FBS described above. After the culture medium was removed, the mixture was dispensed onto the cell plate in 100 μl each/well, followed by incubation at 37° C. for an hour in a 5% CO2 incubator (pigment loading). The peptide was dissolved in dimethylsulfoxide in 1×10^−3 M. The peptide solution was diluted with HANKS/HBSS containing 2.5 mM Probenecid, 0.2% BSA and 0.1% CHAPS. […]
Regarding `CNC(=N)NCCC[C@H](NC(=O)[C@H](CC(C)C)NC(=O)NNC(=O)[C@H](Cc1cccc(F)c1)NC(=O)[C@@H](NC(=O)[C@H](CC(N)=O)NC(=O)[C@H](CCC(=O)O)NC(=O)[C@@H](Cc1ccc(O)cc1)NC(C)=O)[C@@H](C)O)C(=O)N[C@@H](Cc1c[nH]c2ccccc12)C(N)=O` [Compound No. 757, Ac-D-Tyr-Glu-Asn-Thr-Phe(3F)-AzaGly-Leu-Arg(Me)-Trp-NH2] (Ac-[dY]ENT[Phe(3-F)][azaGly]L[Arg(Me)]W-NH2), the “Specific Activity: intracellular Ca ion level-increasing activity [specific activity to Metastin (1-54)]” value is on record as 2.7.
As for `CNC(=N)NCCC[C@H](NC(=O)[C@H](CC(C)C)NC(=O)NNC(=O)[C@H](Cc1ccccc1)NC(=O)[C@@H](NC(=O)[C@H](CCC(N)=O)NC(=O)[C@@H]1C[C@@H](O)CN1C(=O)[C@@H](Cc1ccc(O)cc1)NC(C)=O)[C@@H](C)O)C(=O)N[C@@H](Cc1c[nH]c2ccccc12)C(N)=O` [Compound No. 843, Ac-D-Tyr-Hyp-Gln-Thr-Phe-AzaGly-Leu-Arg(Me)-Trp-NH2] (Ac-[dY][Hyp]QTF[azaGly]L[Arg(Me)]W-NH2), the “Specific Activity: intracellular Ca ion level-increasing activity [specific activity to Metastin (1-54)]” value came to 0.8.
For the molecule `CNC(=N)NCCC[C@H](NC(=O)[C@H](CC(C)C)NC(=O)NNC(=O)[C@H](Cc1ccccc1)NC(=O)[C@@H](NC(=O)[C@H](CC(N)=O)NC(=O)[C@@H]1CCN1C(=O)[C@@H](Cc1ccc(O)cc1)NC(C)=O)[C@@H](C)O)C(=O)N[C@@H](Cc1c[nH]c2ccccc12)C(N)=O` [Compound No. 720, Ac-D-Tyr-Aze(2)-Asn-Thr-Phe-AzaGly-Leu-Arg(Me)-Trp-NH2] (Ac-[dY][Aze]NTF[azaGly]L[Arg(Me)]W-NH2), the “Specific Activity: intracellular Ca ion level-increasing activity [specific activity to Metastin (1-54)]” value amounted to 0.8.
The value for `CNC(=N)NCCC[C@H](NC(=O)[C@H](CC(C)C)NC(=O)NNC(=O)[C@H](Cc1ccc(Cl)cc1)NC(=O)[C@@H](NC(=O)[C@H](CC(N)=O)NC(=O)[C@H](CCC(=O)O)NC(=O)[C@@H](Cc1ccc(O)cc1)NC(C)=O)[C@@H](C)O)C(=O)N[C@@H](Cc1c[nH]c2ccccc12)C(N)=O` [Compound No. 759, Ac-D-Tyr-Glu-Asn-Thr-Phe(4Cl)-AzaGly-Leu-Arg(Me)-Trp-NH2] (Ac-[dY]ENT[Phe(4-Cl)][azaGly]L[Arg(Me)]W-NH2) was 1.9.
With `CNC(=N)NCCC[C@H](NC(=O)[C@H](CC(C)C)NC(=O)NNC(=O)[C@H](Cc1ccccc1)NC(=O)[C@@H](NC(=O)[C@H](CC(N)=O)NC(=O)[C@@H]1C[C@@H](O)CN1C(=O)[C@H](Cc1ccc(O)cc1)NC(C)=O)[C@@H](C)O)C(=O)N[C@@H](Cc1c[nH]c2ccccc12)C(N)=O` [Compound No. 899, Ac-Tyr-Hyp-Asn-Thr-Phe-AzaGly-Leu-Arg(Me)-Trp-NH2] (Ac-Y[Hyp]NTF[azaGly]L[Arg(Me)]W-NH2), the “Specific Activity: intracellular Ca ion level-increasing activity [specific activity to Metastin (1-54)]” value amounted to 1.1.
The value for `CNC(=N)NCCC[C@H](NC(=O)[C@H](CC(C)C)NC(=O)NNC(=O)[C@H](Cc1ccccc1F)NC(=O)[C@@H](NC(=O)[C@H](CC(N)=O)NC(=O)[C@H](CCCCN)NC(=O)[C@@H](Cc1ccc(O)cc1)NC(C)=O)[C@@H](C)O)C(=O)N[C@@H](Cc1c[nH]c2ccccc12)C(N)=O` [Compound No. 754, Ac-D-Tyr-Lys-Asn-Thr-Phe(2F)-AzaGly-Leu-Arg(Me)-Trp-NH2] (Ac-[dY]KNT[Phe(2-F)][azaGly]L[Arg(Me)]W-NH2) was 3.1; that for `CNC(=N)NCCC[C@H](NC(=O)[C@H](CC(C)C)NC(=O)NNC(=O)[C@H](Cc1ccccc1)NC(=O)[C@@H](NC(=O)[C@H](CC(N)=O)NC(=O)[C@@H](CN)NC(=O)[C@@H](Cc1ccc(O)cc1)NC(C)=O)[C@@H](C)O)C(=O)N[C@@H](Cc1c[nH]c2ccccc12)C(N)=O` [Compound No. 736, Ac-D-Tyr-D-Dap-Asn-Thr-Phe-AzaGly-Leu-Arg(Me)-Trp-NH2] (Ac-[dY][dDap]NTF[azaGly]L[Arg(Me)]W-NH2) was 2.4.
With `CNC(=N)NCCC[C@H](NC(=O)[C@H](CC(C)C)NC(=O)NNC(=O)[C@H](Cc1ccccc1F)NC(=O)[C@@H](NC(=O)[C@H](CC(N)=O)NC(=O)[C@H](CCC(=O)O)NC(=O)[C@@H](Cc1ccc(O)cc1)NC(C)=O)[C@@H](C)O)C(=O)N[C@@H](Cc1c[nH]c2ccccc12)C(N)=O` [Compound No. 755, Ac-D-Tyr-Glu-Asn-Thr-Phe(2F)-AzaGly-Leu-Arg(Me)-Trp-NH2] (Ac-[dY]ENT[Phe(2-F)][azaGly]L[Arg(Me)]W-NH2), the “Specific Activity: intracellular Ca ion level-increasing activity [specific activity to Metastin (1-54)]” value is 3.5.
For the molecule “Ac-D-Tyr-D-Trp-Asn-D-Pro-Phe-AzaGly-Leu-Arg(Me)-Trp-NH2 (Ac-[dY][dW]N[dP]F[azaGly]L[Arg(Me)]W-NH2; SMILES CNC(=N)NCCC[C@H](NC(=O)[C@H](CC(C)C)NC(=O)NNC(=O)[C@H](Cc1ccccc1)NC(=O)[C@H]1CCCN1C(=O)[C@H](CC(N)=O)NC(=O)[C@@H](Cc1c[nH]c2ccccc12)NC(=O)[C@@H](Cc1ccc(O)cc1)NC(C)=O)C(=O)N[C@@H](Cc1c[nH]c2ccccc12)C(N)=O) [Compound No. 719]”, the “Specific Activity: intracellular Ca ion level-increasing activity [specific activity to Metastin (1-54)]” value was determined as 3.8.
Regarding `CNC(=N)NCCC[C@H](NC(=O)[C@H](CC(C)C)NC(=O)NNC(=O)[C@H](Cc1ccccc1)NC(=O)[C@@H](NC(=O)[C@H](CC(N)=O)NC(=O)CCCCCN)[C@@H](C)O)C(=O)N[C@@H](Cc1c[nH]c2ccccc12)C(N)=O` [Compound No. 712, Acp-Asn-Thr-Phe-AzaGly-Leu-Arg(Me)-Trp-NH2] (H-[Ahx]NTF[azaGly]L[Arg(Me)]W-NH2), the “Specific Activity: intracellular Ca ion level-increasing activity [specific activity to Metastin (1-54)]” value is 8.9.
The value for `CNC(=N)NCCC[C@H](NC(=O)[C@H](CC(C)C)NC(=O)NNC(=O)[C@H](Cc1ccccc1)NC(=O)[C@@H](NC(=O)[C@H](CC(N)=O)NC(=O)[C@@H]1C[C@@H](F)CN1C(=O)[C@@H](Cc1ccc(O)cc1)NC(C)=O)[C@@H](C)O)C(=O)N[C@@H](Cc1c[nH]c2ccccc12)C(N)=O` [Compound No. 897, Ac-D-Tyr-Pro(4F)-Asn-Thr-Phe-AzaGly-Leu-Arg(Me)-Trp-NH2] (Ac-[dY][Pro(trans-4-F)]NTF[azaGly]L[Arg(Me)]W-NH2) was 0.7.
With `CNC(=N)NCCC[C@H](NC(=O)[C@H](CC(C)C)NC(=O)NNC(=O)[C@H](Cc1ccccc1)NC(=O)[C@@H](NC(=O)[C@H](CC(N)=O)NC(=O)[C@@H]1C[C@@H](O)CN1C(=O)[C@@H](Cc1ccc(O)cc1)NC(C)=O)[C@@H](C)O)C(=O)N[C@@H](Cc1c[nH]c2ccccc12)C(N)=O` [Compound No. 723, Ac-D-Tyr-Hyp-Asn-Thr-Phe-AzaGly-Leu-Arg(Me)-Trp-NH2] (Ac-[dY][Hyp]NTF[azaGly]L[Arg(Me)]W-NH2), the “Specific Activity: intracellular Ca ion level-increasing activity [specific activity to Metastin (1-54)]” value is 2.0.
Consider `CCCCCCCCCC(=O)N[C@@H](CC(N)=O)C(=O)N[C@H](C(=O)N[C@@H](Cc1ccccc1)C(=O)NNC(=O)N[C@@H](CC(C)C)C(=O)N[C@@H](CCCNC(=N)NC)C(=O)N[C@@H](Cc1c[nH]c2ccccc12)C(N)=O)[C@@H](C)O` [Compound No. 710, Decanoyl-Asn-Thr-Phe-AzaGly-Leu-Arg(Me)-Trp-NH2] (Decanoyl-NTF[azaGly]L[Arg(Me)]W-NH2), for which the “Specific Activity: intracellular Ca ion level-increasing activity [specific activity to Metastin (1-54)]” value turned out to be 7.2.
